Data published in patent US12319694B2, “Heterocyclic nitrogen-containing purine derivatives, pharmaceutical preparations containing these derivatives and their use in neuroprotection” (UNIVERZITA PALACKEHO, priority 2019, dated 2025).

How the values were obtained:
[1] = tested on: SH-SY5Y human neuroblastoma cell line (differentiated phenotype); experiment: Viability test, salsolinol-induced model of Parkinson's disease in differentiated SH-SY5Y (Calcein AM); format: cell-based; details: 24 h
Method: (§1) The SH-SY5Y human neuroblastoma cell line obtained as kind gift from Walter d'Acunto (originally purchased from ATCC—American Type Culture Collection (Manassas, VA, USA) was cultivated in Dulbecco's modified Eagle's Medium and Ham's F12 Nutrient Mixture (DMEM:F-12, 1:1), supplemented with 10% fetal bovine serum (FBS) and 1% penicillin and streptomycin at 37° C. in a humidified atmosphere 5% CO2, 95% air in passage limit up to ATCC+15. The assay was performed in 96-well microplate with 7000 SH-SY5Y cells per well. Next day, SH-SY5Y underwent all-trans retinoic acid (ATRA)-differentiation for 48 h (ATRA 10 μM). After 48 h, old DMEM/F12 media was removed by fresh media containing tested compounds at 0.1, 1 and 10 μM concentrations for 24 h. The tested compounds were dissolved in DMSO were added into the medium. The maximum concentration of DMSO in media was kept below 0.1% (v/v). The cell viability was measured by Calcein AM (1 mg/ml ThermoFisher) viability assay. Solution of Calcein AM in PBS (0.5 uM) was pipetted to cells and incubated for 50 minutes. After that the fluorescence was measured at 488/517 nm (excitation/emission) using microplate reader Infinite M200 (TECAN). Calcein AM assay is based on the dye-intracellular-esterase cleavage of non-fluorescent dye (Calcein AM) by living cells to fluorescent dye (Calcein), while dyeing cells that lose such ability. The values in Table 4 show % of viability, relative to control of all tested compounds. The control (medium with DMSO, <0.1% (v/v)) was postulated as 100% viability (see the first line of the table).
Similarly, to the previous test the assay was performed in 96-well microplates with 7000 SH-SY5Y cells per well. Day after the seeding of cells, SH-SY5Y underwent all-trans retinoic acid (ATRA)-differentiation for 48 h (ATRA 10 μM). After 48 h, old DMEM/F12 media was removed by fresh media containing 500 μM dopaminergic neurotoxin Salsolinol (SAL) without or with tested compounds at 0.1, 1 and 10 μM concentrations. […] After 24 h the cell viability was measured by Calcein AM viability assay.

Nrf2 = experiment: Activation of Nrf2-dependent expression, EpRE-LUX reporter cell line; format: cell-based; details: 24 h; tested at 100, 10, 1 and 0.1 μM, concentration of the printed value not stated; mean ± SD (n = 3)
Method: The ability of compounds to activate Nrf2-dependent expression was determined by EpRE-LUX reporter cell line. In brief, compounds at 100, 10, 1 and 0.1 μM concentrations of the tested compounds were incubated for 24 h with the cells. After cells lysis (10 mM Tris, 2 mM DTT), a buffer containing 0.2 mM luciferin was added to start luminescent reaction. The increase in luminescence was measured with microplate reader Infinite M200 (TECAN). Compounds with Nrf2 value higher than 0 are strong Nrf2 activators and thus will be useful agents for the treatment of neurodegenerative diseases associated with oxidative stress.

[2] = Radical scavenging activity by ORAC assay; details: NAUC relative to trolox; mean ± SD (n = 3)
Method: The ability of compounds to scavenge free radicals in vitro was determined by Oxygen Radical Absorbance Capacity (ORAC) method. In brief, fluorescein (100 μL, […]) and 25 μL of tested compound solution were added into each working well in a 96-well microplate preincubated at 37° C. Thereafter, 25 μL of 250 mM 2,2′-azobis(2-amidino-propan)dihydrochloride (AAPH) was quickly added, microplate was shaken for 5 s and the fluorescence (Ex. 485 nm, Em. 510 nm) was read every 3 min over 90 min by using microplate reader Infinite 200 (TECAN, Switzerland). The NAUC value (Net Area Under Curve) was used to express antioxidant activity relative to trolox (hydrophilic equivalent of vitamin E postulated as a standard). Substances with an ORAC value greater than 0 actively trap free radicals.

[3] = tested on: SH-SY5Y human neuroblastoma cell line (differentiated phenotype); experiment: Calcein AM viability test on ATRA-differentiated SH-SY5Y cells; format: cell-based; details: 24 h, DMSO control = 100%
Method: as §1

[4] = tested on: SH-SY5Y human neuroblastoma cell line; experiment: Oxidative stress measurement (dihydroethidium, superoxide) in SH-SY5Y, salsolinol-induced model of PD; format: cell-based; details: 6 h
Method: The assay was performed in 96-well microplate with 7000 cells/well. Next day, SH-SY5Y underwent differentiation protocol for 48 h see above. Treatment procedure remained the same as in previous section (Cell treatment and viability/cytotoxicity assays). Additionally, oxidative stress (OS) inducers such as 6-hydroxydopamine (6-OHDA) and glutamate (Glu) alone were used as […]. Negative controls determined threshold of excessive OS. […] After 30 minutes, DHE was read at 500 nm/580 nm (excitation/emission). DHE is cell permeable dye which is selective toward superoxide radical detection.

[5] = 0.1 μM compound with 500 μM Salsolinol
[6] = 1 μM compound with 500 μM Salsolinol
[7] = 10 μM compound with 500 μM Salsolinol

Structure (SMILES)	Neuroprotective effect (% of control) [1, 5]	Neuroprotective effect (% of control) [1, 6]	Neuroprotective effect (% of control) [1, 7]	Nrf2 (relative luminiscence) (Nrf2)	ORAC (compound/trolox) [2]	% of viability, relative to control ([3]; 0.1 μM compound)	% of viability, relative to control ([3]; 1 μM compound)	% of viability, relative to control ([3]; 10 μM compound)	Oxidative stress (% of control) ([4]; 1 μM compound with SAL 500 μM)	Oxidative stress (% of control) ([4]; 10 μM compound with SAL 500 μM)
COc1cccc(Cn2cnc3c(N4CCCC4)nc(N4CCCC4)nc32)c1 [Compound 42]	6.86 % of control	15.44 % of control	20.05 % of control	0.00 ± 0.00 relative luminiscence	0.029 ± 0.002 compound/trolox	112.01%	127.94%	138.52%	171.55 % of control	173.94 % of control
COc1ccccc1Cn1cnc2c(N3CCCC3)nc(N3CCCC3)nc21 [Compound 35]	1.19 % of control	13.01 % of control	19.11 % of control	0.04 ± 0.00 relative luminiscence	0.033 ± 0.001 compound/trolox	104.22%	118.77%	135.02%	161.97 % of control	214.57 % of control
c1ccc(Cn2cnc3c(N4CCC4)nc(N4CCC4)nc32)cc1 [Compound 1]	N/A (N/A = no protection)	3.03 % of control	26.08 % of control	0.27 ± 0.06 relative luminiscence	0.052 ± 0.002 compound/trolox	104.80%	114.03%	145.94%	124.48 % of control	157.22 % of control
